From patent US12116574B2, “Anti-inflammatory treatment via inhibition of endothelial cell kinesin light chain 1, variant 1 (KLC1C)” (Northwestern University, priority 2016, dated 2024)
Entries after “also recorded” stand apart in the source; their conditions may differ.

Assays:
Assay type in all cases: cell-based, human
HUVEC = test: Standard one hour Transendothelial Migration (TEM) assay on transduced HUVEC
Experimental: (§1) 293A cells were grown on 100 mm dishes to 70-90% confluency and then transfected with adenoviral constructs using Lipofectamine 2000 for delivery. Amplified virus that expressed KHC and KLC knockdown and rescue constructs was purified and used to in transduction of HUVEC for knockdown and rescue experiments (VIRAPOWER Adenoviral Expression System).
The TEM assay is a quantitative assay designed to assess, using large numbers of transmigration events (more than 300 per variable tested), the effect of various treatments such as knocking down Kinesin-1, on the process of transmigration. As routinely performed in our lab (refs. 19,21; herein incorporated by reference in their entireties), peripheral blood mononuclear cells (PBMC, to assess monocyte transmigration) from healthy volunteers are purified on a Ficoll density gradient and then washed in Hanks' buffered saline solution (HBSS) plus 0.1% human serum albumin. Following this wash, they are resuspended in Medium 199 plus 0.1% human serum albumin. 2×10^6 cells are added to confluent TNF-α activated (10 ng/mL, >4 hrs) human umbilical vein endothelial cell (HUVEC) monolayers grown on hydrated collagen gels and incubated for 1 h at 37° C. in a CO2 incubator (ref. 22; herein incorporated by reference in its entirety). This is enough time to allow maximum TEM of control cells (˜90%).
To assess the role of microtubule motors in leukocyte TEM, control and experimentally treated HUVEC are compared side by side in this assay. The co-culture is washed with cold PBS and fixed overnight with 2.5% glutaraldehyde in 0.1 M sodium cacodylate buffer, pH 7.4. TEM is quantitated by Nomarski optics (ref. 21; herein incorporated by reference in its entirety). […] Monocytes are scored in each of several random fields for each monolayer until at least 100 are counted, with 3 replicate monolayers for each condition for a total of over 300 cells per variable tested. To avoid unintentional bias, all cells in the field are counted. Data are expressed as the percent of total leukocytes (attached plus transmigrated) that have transmigrated.

[1] = tested on: lateral border recycling compartment (LBRC) in HUVEC; test: Targeted Recycling assay (LBRC recruitment to transmigrating leukocytes); settings: transduced HUVEC, 8.5 minutes
Experimental: The Targeted Recycling assay determines whether the LBRC has been recruited to transmigrating leukocytes. Targeted recycling was performed as described previously (ref 5; herein incorporated by reference in its entirety). HUVEC monolayers are incubated with an Fab fragment of P1.1 mAb for 1 h at 37° C. in a CO2 incubator. […] HUVEC are then put on ice and washed with PBS to remove any free unbound Fab, followed by an incubation with an excess of F(ab′)2 fragment of unlabeled goat anti-mouse IgG on ice for 1 h. This saturably binds all of the Fab that is present on the surface of the endothelial junction, but will not enter the LBRC at this temperature. Free antibody is washed away and 2×10^6 PBMCs mixed with Alexa-568-conjugated F(ab′)2 fragment of the same goat […] transmigration to begin. Cells are then put on ice and washed with ice-cold PBS, followed by fixation in 2% paraformaldehyde for 10 min at room temperature.
In this procedure, only PECAM that was originally in the LBRC and recycled to the surface during the transmigration period will be labeled with the fluorescent secondary antibody, since it was protected from the unlabeled secondary antibody during the incubation on ice. The synchronized transmigration for a short time (8 minutes) catches leukocytes early in the act of transmigration before significant constitutive recycling and a corresponding increase in the staining of uninvolved junction occurs.
Confocal fluorescence microscopy is used to image the targeted recycling events. Leukocytes are identified with fluorescently conjugated mAb against CD18 (IB4). […] The number of monocytes in contact with the endothelial monolayer at cell junctions was assessed, and of those, it was determined how many are contacted by membrane from the LBRC. The intensity of fluorescent Goat-anti-mouse mAb was measured to quantify enrichment of recycling LBRC around transmigrating leukocytes. One-pixel-wide lines are drawn along the area surrounding the site of diapedesis. The mean fluorescence intensity in contact with the leukocyte is divided by the average intensity of constitutively recycled PECAM at the adjacent cell border to calculate LBRC enrichment around transmigrating leukocytes. Multiple monolayers were examined until at least one hundred transmigration events are observed for each variable tested. To avoid unintentional bias each leukocyte in contact with the endothelial border is scored, whether or not it has initiated TEM. […] Image processing and quantification of data are performed using Volocity and ImageJ (NIH) image processing software.

Kinesin-1 = test: Western Blot of Kinesin-1 in virally-transduced HUVEC; settings: Kinesin-1 shRNA plus mCherry-tagged rescue construct
Experimental: as §1
HUVEC were harvested for SDS-PAGE by washing with PBS and adding sample buffer. DNA was sheared by passing through a 27 G needle 10 times and samples were heated to 100° C. for 5 minutes. Samples were separated on 8% polyacrylamide gels and transferred onto polyvinyldifluoride membranes before blocking with 5% milk in PBS with 0.05% Tween and probing with primary antibodies. Blots were incubated with horseradish peroxidase-conjugated secondary antibodies in 5% milk in PBS with 0.05% Tween, then washed, and detected using chemiluminescence and exposure to X-ray film.

Substance	transmigration (TEM) of monocytes (HUVEC)	LBRC enrichment around monocytes at endothelial junctions [1]	targeted recycling of the LBRC [1]	targeted recycling of the LBRC ([1]; listed as KLC1 Variant 1 shRNA)	Kinesin-1 expression after rescue of knockdown (Kinesin-1)
KLC1 variants 2 & 3 shRNA: shRNA targeting KLC1 isoform variants 2 (NM_182923.3) and 3 (NM_001130107.1); 5′-GCATAGGACATGATACTAA-3′ (SEQ ID NO: 12) (the letters are possibly those of the target site)	not				
KLC1 variant 1 shRNA: shRNA targeting 3′ noncoding region of KLC1 isoform variant 1 (NM_005552.4); 5′-TGTATTTGTGTCTTTCTAA-3′ (SEQ ID NO: 11) (the letters are possibly those of the target site)	reduced; also recorded: blocks	significantly diminished	significantly diminished	significantly decreased	
Kinesin-1 rescue construct: KHC rescue construct with silent point mutations in the targeted sequences and in-frame mCherry tag at the 3′ end	rescued		restored targeted recycling to control levels		rescued
